From patent EP3884941A1, “INFLAMMASOME INHIBITORS AND USE THEREOF” (CENTRO DE INVESTIGACION PRINCIPE FELIPE, priority 2020, dated 2021)

Tests used:
Recombinant caspase-1 = target: T1, Recombinant caspase-1 (Homo sapiens, UniProt P29466); assay: caspase-1 in vitro activation assay (secondary screening); type: biochemical; settings: preactivated recombinant caspase-1
T1 sequence (P29466 120-297 limits assumed): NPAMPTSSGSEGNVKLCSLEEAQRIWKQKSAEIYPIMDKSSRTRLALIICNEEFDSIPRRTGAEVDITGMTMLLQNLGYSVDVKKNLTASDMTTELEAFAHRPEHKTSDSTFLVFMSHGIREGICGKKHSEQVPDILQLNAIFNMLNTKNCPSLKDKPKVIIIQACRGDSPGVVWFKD
T1 sequence (P29466 317-404 limits assumed): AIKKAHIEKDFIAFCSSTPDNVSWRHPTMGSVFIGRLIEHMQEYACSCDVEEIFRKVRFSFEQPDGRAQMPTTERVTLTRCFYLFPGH
Protocol: Recombinant caspase-1 (50 nM) was incubated with the indicated concentrations of compounds for 20 min at RT in Assay Buffer. Then fluorogenic substrate Ac-WEHD-AFC (80 µM) was added, and activity was monitored in a Wallac Victor workstation. Data are reported as the percentage of inhibition compared with the absence of the inhibitor.

[1] = system: NLRP3 activation in MSU-induced peritonitis; assay: MSU-induced peritonitis mouse model; type: in vivo, C57BL/6 mice; settings: 10 mg/kg i.p. 30 min before MSU 2 mg/mouse i.p.
Protocol: We next evaluated the efficacy of MM01 in a murine MSU-induced peritonitis model. (Spalinger MR et al. Bio-protocol 2018; 8(5): e2754). Mono-sodium urate (MSU; InvivoGen) crystals are potent activators of the NLRP3 receptor. Upon activation, NLRP3 induces the formation of inflammasome complex, which lead to the production and release of mature IL-1β. In the early phase of peritonitis, the number of infiltrating neutrophils correlates with the production of mature IL-1β. MM01 was injected intraperitoneal 30 min before MSU crystals i.p. injection.
In vivo model was performed according to the protocol approved by the Institutional Animal Ethical Committee of CIPF. C57BL/6 mice were injected i.p. with 10 mg/kg MM01 or vehicle 30 min before i.p. injection of MSU (2 mg MSU crystals in 200 µl sterile PBS). After 6 h, mice were sacrificed, and peritoneal lavage with 5 ml of PBS was performed. Cytokine IL-1β secretion was determined by ELISA (#DY401 R&D Systems) and neutrophil content measured in ACVLAB Laboratorio Valencia.

Apoptosome = target: T2, Apoptosome (Homo sapiens, UniProt O14727); assay: Apoptosome activity assay; type: biochemical; settings: reconstituted in vitro; MM01 5 µM (Figure 2C)
T2 sequence (O14727 1-1248): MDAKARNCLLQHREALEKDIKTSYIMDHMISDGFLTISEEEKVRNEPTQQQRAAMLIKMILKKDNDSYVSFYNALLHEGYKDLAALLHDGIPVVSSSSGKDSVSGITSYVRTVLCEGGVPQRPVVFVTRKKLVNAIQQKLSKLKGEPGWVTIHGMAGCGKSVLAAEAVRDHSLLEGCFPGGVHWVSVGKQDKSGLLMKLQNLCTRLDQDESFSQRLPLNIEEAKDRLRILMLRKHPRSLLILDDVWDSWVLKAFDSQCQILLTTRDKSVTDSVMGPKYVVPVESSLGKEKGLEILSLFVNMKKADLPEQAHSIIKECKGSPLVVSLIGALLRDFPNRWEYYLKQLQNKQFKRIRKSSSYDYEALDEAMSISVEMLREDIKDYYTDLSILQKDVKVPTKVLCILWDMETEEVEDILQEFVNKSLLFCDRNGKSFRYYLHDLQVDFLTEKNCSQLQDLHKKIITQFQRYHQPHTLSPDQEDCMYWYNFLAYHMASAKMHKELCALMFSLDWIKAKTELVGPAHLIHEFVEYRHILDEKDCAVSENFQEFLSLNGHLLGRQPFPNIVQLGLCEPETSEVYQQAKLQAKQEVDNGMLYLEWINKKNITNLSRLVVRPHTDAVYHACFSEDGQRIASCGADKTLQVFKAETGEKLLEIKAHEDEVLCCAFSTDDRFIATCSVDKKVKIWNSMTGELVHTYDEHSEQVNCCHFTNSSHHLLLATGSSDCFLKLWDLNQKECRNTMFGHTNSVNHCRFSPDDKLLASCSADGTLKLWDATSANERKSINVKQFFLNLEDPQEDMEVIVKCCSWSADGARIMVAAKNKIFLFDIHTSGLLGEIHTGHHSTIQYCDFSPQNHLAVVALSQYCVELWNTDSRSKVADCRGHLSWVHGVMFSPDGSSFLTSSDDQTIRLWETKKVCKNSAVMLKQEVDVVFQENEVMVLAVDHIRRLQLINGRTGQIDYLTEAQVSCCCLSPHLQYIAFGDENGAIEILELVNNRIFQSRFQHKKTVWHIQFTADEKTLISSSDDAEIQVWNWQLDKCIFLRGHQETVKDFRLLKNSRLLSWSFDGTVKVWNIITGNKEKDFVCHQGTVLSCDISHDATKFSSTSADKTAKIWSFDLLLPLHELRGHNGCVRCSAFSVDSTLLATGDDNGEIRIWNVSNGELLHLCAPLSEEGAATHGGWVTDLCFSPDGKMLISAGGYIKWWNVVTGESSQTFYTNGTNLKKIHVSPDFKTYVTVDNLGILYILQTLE
Protocol: Apoptosome was reconstituted by incubating rApaf-1 (100 nM) with vehicle (DMSO) or compounds in assay buffer (20 mM HEPES, 10 mMKCI, 1.5 mM MgCI2, 1 mM EDTA, 1 mM EGTA, 1 mM DTT, 0.1 mM PMSF) at 30°C for 30 min. Next, 100 µM dATP and 100 nM Cytc were added and incubated for additional 40 min. Then, caspase-9 (100 nM) was added, and activity was monitored by the Ac-LEHD-afc substrate (50 µM) using a Victor 2 spectrofluorimeter.

NLRP3 inflammasome = assay: murine peritoneal macrophages cellular assay, LPS plus ATP; type: cell-based, Mice (BALB/c)
Protocol: Mice (BALB/c) were euthanized, and 5 ml of cold medium was injected (20G needle) into the peritoneal region. The aspirated fluid from peritoneum was centrifuged for 10 min at 400 × g and the cell pellet resuspended in DMEM/F12-10 (1 ml). 40000 cells/well were plated in 24-well plates. Cells were allowed to adhere to the plate by culturing them 2 h at 37°C and then, non-adherent cells were removed by gently washing three times with warm PBS. Macrophages were primed for 4 h with 100 ng/ml pure LPS (Alexis Biochemicals Corporation), in serum-free IMDM medium followed by 30 min with 5 mM ATP. Supernatants were harvested and clarified by centrifugation at 1500 rpm at RT and cytokine, and caspase-1 activation analysis was performed as previously described in Example 3.

C=CCN1C(=O)/C(=C2/C(=O)Nc3ccccc32)SC1=S [MM01]
caspase-1 activity (Recombinant caspase-1): do not act on | neutrophil recruitment ([1]; peritoneal cavity after 6 h): efficiently suppressed | MSU injection-induced IL-1β production ([1]; peritoneal lavage after 6 h, ELISA): efficiently suppressed | inhibition of the apoptosome (Apoptosome): No inhibition | TNF-α release (NLRP3 inflammasome): not correlated with a significant reduction | release of LDH (NLRP3 inflammasome): decreased | IL-1β release (NLRP3 inflammasome; at 5 and 10 µM of MM01): significant inhibition | IL-6 release (NLRP3 inflammasome; at 5 and 10 µM of MM01): significant inhibition
